In PubChem BioAssay (NCI):
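Dose response: 5 concentrations. Exposure: 48 h. Format: 96-well plates. Endpoint: linear interpolation; highest concentration if not reached. Definition used: TGI = concentration required for complete inhibition of growth.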

How the values were obtained:
Experiment in all cases: NCI tumour cell line growth inhibition, 48 h
[1] = test system: 786-0 renal
[2] = test system: A498 renal
[3] = test system: A549 NSCLC
[4] = test system: ACHN renal
[5] = test system: BT-549 breast
[6] = test system: CAKI-1 renal
[7] = test system: CCRF-CEM leukemia
[8] = test system: COLO 205 colon
[9] = test system: DU-145 prostate
[10] = test system: EKVX NSCLC
[11] = test system: HCC-2998 colon
[12] = test system: HCT-116 colon
[13] = test system: HCT-15 colon
[14] = test system: HL-60(TB) leukemia
[15] = test system: HOP-62 NSCLC
[16] = test system: HS 578T breast
[17] = test system: HT29 colon
[18] = test system: IGROV1 ovarian
[19] = test system: K-562 leukemia
[20] = test system: KM12 colon
[21] = test system: LOX IMVI melanoma
[22] = test system: M14 melanoma
[23] = test system: MALME-3M melanoma
[24] = test system: MCF7 breast
[25] = test system: MDA-MB-231 breast
[26] = test system: MDA-MB-435
[27] = test system: MDA-N
[28] = test system: MOLT-4 leukemia
[29] = test system: NCI-H226 lung
[30] = test system: NCI-H23 lung
[31] = test system: NCI-H460 lung
[32] = test system: NCI-H522 lung
[33] = test system: NCI/ADR-RES ovarian
[34] = test system: OVCAR-3 ovarian
[35] = test system: OVCAR-4 ovarian
[36] = test system: OVCAR-5 ovarian
[37] = test system: OVCAR-8 ovarian
[38] = test system: PC-3 prostate
[39] = test system: RPMI-8226 leukemia
[40] = test system: RXF 393 renal
[41] = test system: SF-268 CNS
[42] = test system: SF-295 CNS
[43] = test system: SK-MEL-2 melanoma
[44] = test system: SK-MEL-28 melanoma
[45] = test system: SK-MEL-5 melanoma
[46] = test system: SK-OV-3 ovarian
[47] = test system: SN12C renal
[48] = test system: SNB-19 CNS
[49] = test system: SNB-75 CNS
[50] = test system: SR leukemia
[51] = test system: SW-620 colon
[52] = test system: T-47D breast
[53] = test system: U251 CNS
[54] = test system: UACC-62 melanoma
[55] = test system: UO-31 renal
[56] = test system: HOP-92 NSCLC
[57] = test system: SF-539 CNS
[58] = test system: TK-10 renal
[59] = test system: UACC-257 melanoma

`C=C(CCOC)CCC1CCCCC/C1=N\N(C)C` (configuration not stated) showed a TGI [1] of over 100 µM, a TGI [2] of over 100 µM and a TGI [3] of over 100 µM. The TGI [4] was over 100 µM, the TGI [5] was over 100 µM and the TGI [6] was over 100 µM. The TGI [7] was over 100 µM, the TGI [8] was over 100 µM and the TGI [9] was over 100 µM. It also gave a TGI [10] of over 100 µM, a TGI [11] of over 100 µM and a TGI [12] of over 100 µM. It also gave a TGI [13] of over 100 µM, a TGI [14] of over 100 µM and a TGI [15] of over 100 µM. The TGI [16] was over 100 µM, the TGI [17] was over 100 µM and the TGI [18] was over 100 µM. It also gave a TGI [19] of over 100 µM, a TGI [20] of over 100 µM and a TGI [21] of over 100 µM. For the same compound, the TGI [22] was over 100 µM, the TGI [23] was over 100 µM and the TGI [24] was over 100 µM. The TGI [25] was over 100 µM, the TGI [26] was over 100 µM and the TGI [27] was over 100 µM. The TGI [28] was over 100 µM, the TGI [29] was over 100 µM and the TGI [30] was over 100 µM. For the same compound, the TGI [31] was over 100 µM, the TGI [32] was over 100 µM and the TGI [33] was over 100 µM. For the same compound, the TGI [34] was over 100 µM, the TGI [35] was over 100 µM and the TGI [36] was over 100 µM. For the same compound, the TGI [37] was over 100 µM, the TGI [38] was over 100 µM and the TGI [39] was over 100 µM. For the same compound, the TGI [40] was over 100 µM, the TGI [41] was over 100 µM and the TGI [42] was over 100 µM. It also gave a TGI [43] of over 100 µM, a TGI [44] of over 100 µM and a TGI [45] of over 100 µM. It also gave a TGI [46] of over 100 µM, a TGI [47] of over 100 µM and a TGI [48] of over 100 µM. For the same compound, the TGI [49] was over 100 µM, the TGI [50] was over 100 µM and the TGI [51] was over 100 µM. The TGI [52] was over 100 µM, the TGI [53] was over 100 µM and the TGI [54] was over 100 µM. The TGI [55] was over 100 µM.
With `O=NN1CCNC1Cc1ccccc1` (configuration not stated) the TGI [1] was over 100 µM, the TGI [3] was over 100 µM and the TGI [4] was over 100 µM. The TGI [5] was over 100 µM, the TGI [7] was over 100 µM and the TGI [8] was over 100 µM. It also gave a TGI [9] of over 100 µM, a TGI [10] of over 100 µM and a TGI [11] of over 100 µM. For the same compound, the TGI [12] was over 100 µM, the TGI [13] was over 100 µM and the TGI [14] was over 100 µM. The TGI [15] was over 100 µM, the TGI [56] was over 100 µM and the TGI [16] was over 100 µM. The TGI [17] was over 100 µM, the TGI [18] was over 100 µM and the TGI [19] was over 100 µM. The TGI [20] was over 100 µM, the TGI [21] was over 100 µM and the TGI [22] was over 100 µM. For the same compound, the TGI [23] was over 100 µM, the TGI [24] was over 100 µM and the TGI [25] was over 100 µM. The TGI [26] was over 100 µM, the TGI [27] was over 100 µM and the TGI [28] was over 100 µM. The TGI [29] was over 100 µM, the TGI [30] was over 100 µM and the TGI [31] was over 100 µM. It also gave a TGI [32] of over 100 µM, a TGI [33] of over 100 µM and a TGI [34] of over 100 µM. It also gave a TGI [35] of over 100 µM, a TGI [36] of over 100 µM and a TGI [37] of over 100 µM. It also gave a TGI [38] of over 100 µM, a TGI [39] of over 100 µM and a TGI [40] of over 100 µM. It also gave a TGI [41] of over 100 µM, a TGI [42] of over 100 µM and a TGI [57] of over 100 µM. It also gave a TGI [44] of over 100 µM, a TGI [45] of over 100 µM and a TGI [46] of over 100 µM. The TGI [47] was over 100 µM, the TGI [48] was over 100 µM and the TGI [49] was 72.6 µM. For the same compound, the TGI [50] was over 100 µM, the TGI [51] was over 100 µM and the TGI [52] was over 100 µM. It also gave a TGI [58] of over 100 µM, a TGI [53] of over 100 µM and a TGI [59] of over 100 µM. The TGI [54] was over 100 µM and the TGI [55] was over 100 µM.
In the case of `COC(=O)/C=C\[C@H]1[C@H](C)N1S(=O)(=O)c1ccc(C)cc1` (some centres not stated), the TGI [1] is reported as over 100 µM, the TGI [2] is reported as over 100 µM and the TGI [3] is reported as over 100 µM. The TGI [4] was over 100 µM, the TGI [5] was over 100 µM and the TGI [6] was over 100 µM. For the same compound, the TGI [7] was over 100 µM, the TGI [8] was over 100 µM and the TGI [9] was over 100 µM. It also gave a TGI [10] of over 100 µM, a TGI [11] of over 100 µM and a TGI [12] of over 100 µM. It also gave a TGI [13] of over 100 µM, a TGI [14] of over 100 µM and a TGI [15] of over 100 µM. It also gave a TGI [16] of over 100 µM, a TGI [17] of over 100 µM and a TGI [18] of over 100 µM. For the same compound, the TGI [19] was over 100 µM, the TGI [20] was over 100 µM and the TGI [21] was over 100 µM. For the same compound, the TGI [22] was over 100 µM, the TGI [23] was over 100 µM and the TGI [24] was over 100 µM. For the same compound, the TGI [25] was over 100 µM, the TGI [26] was over 100 µM and the TGI [27] was over 100 µM. For the same compound, the TGI [28] was over 100 µM, the TGI [29] was over 100 µM and the TGI [30] was over 100 µM. The TGI [31] was over 100 µM, the TGI [32] was 46 µM and the TGI [33] was over 100 µM. It also gave a TGI [34] of over 100 µM, a TGI [35] of over 100 µM and a TGI [36] of over 100 µM. It also gave a TGI [37] of over 100 µM, a TGI [38] of over 100 µM and a TGI [39] of over 100 µM. For the same compound, the TGI [40] was over 100 µM, the TGI [41] was over 100 µM and the TGI [42] was over 100 µM. For the same compound, the TGI [57] was over 100 µM, the TGI [43] was over 100 µM and the TGI [44] was over 100 µM. The TGI [45] was over 100 µM, the TGI [46] was over 100 µM and the TGI [47] was over 100 µM. It also gave a TGI [48] of over 100 µM, a TGI [50] of over 100 µM and a TGI [51] of over 100 µM. It also gave a TGI [52] of over 100 µM, a TGI [58] of over 100 µM and a TGI [53] of over 100 µM. For the same compound, the TGI [59] was over 100 µM and the TGI [54] was over 100 µM.
